Source: US6521443B1, “Growth medium for lactobacilli containing amino acids, nucleosides and iron” (Nestec S.A., priority 1999, dated 2003)

Tests used:
Assay type in all cases: cell-based
Lactobacilli = assay: growth of Lactobacilli in supplemented milk (general trials); settings: addition of ribonucleosides to milk
Procedure: In order to find the identity of other stimulatory substances, several trials were performed with ribonucleotide precursors, that is free bases such as adenine, guanine, cytosine, thymine, and uracil, ribonucleosides such as adenosine, cytidine, uridine, and guanosine, and 2′-deoxyribonucleosides such as deoxyadenosine, deoxyguanosine, deoxycytidine, deoxyuridine and thymidine. These compounds were supplemented to milk as concentrated alkaline or neutral solutions at different concentrations.
This finding confirmed the hypothesis that the low level of purines in milk negatively affects bacterial growth therein. […] Without being bound by theory, it is believed that the high content of orotic acid allows the synthesis of pyrimidine bases. No significant differences in pH-values were detected by the addition of free bases and deoxyribonucleosides between aerobic and anaerobic conditions. […] The positive effect was observed particularly with the addition of ribonucleosides in anaerobic environment.
(§1) The growth results were estimated by cell counts and a final pH measurement performed after 24 hours incubation at 37 ° C. Rapid Analysis of Bacterial Impedance Technique (RABIT) (Don Whitley Scientific, West Yorkshire, UK) was used to perform trials with skim and whole UHT milk for 24 hours at 37° C.

L. johnsonii ATCC 33200 = assay: omission technique with RABIT in skim milk; settings: skim milk with four ribonucleosides and ferrous sulphate
Procedure: as §1
In order to determine those amino acids having an essential role for L. johnsonii growth in milk, the “omission technique” (Reiter, B. & Oram, J. D, I. Dairy Res, 29 (1962), 63-77) was applied by culturing the strain ATCC 33200^T in skim milk, adding four ribonucleosides and ferrous sulphate (positive control), supplemented with the mixture of 19 amino acids described above deprived of one particular component at each given time.

L. johnsonii = assay: growth assay in milk, L. johnsonii (strain not specified)
Procedure: Skim milk (Difco) 10% w/v in sterile water and whole fat UHT milk (Parmalat, Italy) were used to perform the growth assays. The milk tubes were 1% inoculated from an overnight MRS culture washed twice and finally re-suspended with the same amount of sterile distilled water in order to avoid nutrient transfer via the medium.
Milk tubes were incubated aerobically in a thermostat (Sorvall Heraeus) at 37° C. for 24 hours, or anaerobically in an anaerobic incubator (Model 1024, Forma Scientific, USA) at 37° C. for 24 hours.
The chemicals supplemented to the milk were added as concentrated solutions prepared according to standard methods, i.e., the Merck Index instructions. The final pH of milk was adjusted to 6.8 after supplementation using an aqueous 4N sodium hydroxide solution. The initial pH of the 10% skim milk solution and whole fat UHT milk was 6.8 and 6.7, respectively.
as §1
A final pH of 4.1 was measured after amino acids supplementation, but the cell count was still not satisfactory. The cell count when a 10% skim milk with 19 amino acids added increased from 1.0×10^7 CFU/ml to 40×10^7 CFU/ml, which is a factor of 40 increase but is less than the factor of 300 increase observed with 10% skim milk and yeast extract.

SMILES: Nc1ncnc2c1ncn2[C@@H]1O[C@H](CO)[C@@H](O)[C@H]1O [adenosine]
- improvement of growth conditions in milk (Lactobacilli): strongest effect

SMILES: C[C@H](N)C(=O)O [alanine]
- effect of amino acid on growth (RABIT, omission technique) (L. johnsonii ATCC 33200): excellent results

SMILES: N[C@@H](CS)C(=O)O [cysteine]
- effect of amino acid on growth (RABIT, omission technique) (L. johnsonii ATCC 33200): excellent results
- pH in the presence of cysteine (L. johnsonii; aerobic conditions): 3.9
- pH in absence of cysteine (L. johnsonii; anaerobic conditions): 4.3

SMILES: Nc1nc2c(ncn2[C@@H]2O[C@H](CO)[C@@H](O)[C@H]2O)c(=O)[nH]1 [guanosine]
- improvement of growth conditions in milk (Lactobacilli): strongest effect

SMILES: CC[C@H](C)[C@H](N)C(=O)O [isoleucine]
- effect of amino acid on growth (RABIT, omission technique) (L. johnsonii ATCC 33200): excellent results

SMILES: N[C@@H](CO)C(=O)O [serine]
- effect of amino acid on growth (RABIT, omission technique) (L. johnsonii ATCC 33200): excellent results

SMILES: O=C(O)CS [thioglycollic acid]
- cell counts (L. johnsonii; aerobic conditions, final concentration 0.5% v/v, replacing cysteine): more than 100×10^7 CFU/ml
